According to PMC9845330 (Communications Biology, 2023):
Non-standard residues stand in square brackets, D forms with d. Residues, ends and D or L forms follow the SMILES beside them. *: point of attachment. X1 = O=C(CCCC[C@@H]1SC[C@@H]2NC(=O)N[C@@H]21)NCCCOCCOCCOCCCN*; PEG12 = NCCOCCOCCOCCOCCOCCOCCOCCOCCOCCOCCOCCOCCC(=O)O

Assays:
Test in all cases: Cell internalization by flow cytometry, absolute uptake (molecules per cell)
Format in all cases: cell-based, human
Conditions in all cases: for Molecules Internalized Per Cell: Average
[1] = system: H358 cells
Source text: (§1) Optimizing MGS4 as a monomer is efficient but the optimal valency of the truncated peptide may be different than that of the full-length peptide. The peptide was synthesized as a monomer (MGS4_V8), dimer (MGS4_V9), and tetramer (MGS4_V10). To obtain quantitative data, we moved from measuring the relative fluorescence of dye-labeled peptide to the determination of the average number of dye molecules internalized per cell. […] The dimer MGS4_V9 has an EC50 7-fold lower indicating there is a synergistic effect in going from a monomer to a dimer (Fig. 2a and Table 2). However, there is only a 2-fold decrease in going from a dimer to a tetrameric peptide (MGS4_V10). We also calculated the EC50 on three other NSCLC cell lines (Table 2 and Supplementary Figure 3). […] The average number of peptides internalized per cell at saturating conditions varies, with H1993 cells internalizing the highest number of peptides at all three valencies (Table 2). This is likely due to differing levels of receptor expression on the cell type. The average molecules internalized at 50 nM in one hour follows the same trend (Fig. 2b).
(§2) Biotinylated peptide was conjugated to streptavidin-R-phycoerythrin or streptavidin-Alexa Fluor 647 (1:1 molar ratio) for 30 min. The open binding sites on streptavidin were quenched with RPMI 1640 and diluted to the indicated concentration. Tumor cells were grown to 90% confluency in a 12 well plate, then incubated with 500 µl peptide-dye conjugate at 37 °C. After 1 h, peptide was removed, and the cells were washed 3x with PBS (137 mM NaCl, 2.7 mM KCl, 10 mM Na2HPO4, 1.8 mM KH2PO4, pH 7.4), 2x with 0.1 M HCl-glycine pH2.2 in 0.9% NaCl, and 1x PBS rinse. Cells were removed by trypsinization. Flow cytometry was performed on a BD FACSCelesta, and data were analyzed on Flowing software. Cells were gated based on the forward and side scatter to include only viable cells and a minimum of 10,000 events were counted. A region containing <5% of the cells in the negative control was established, and relative peptide uptake by the mean fluorescence intensity of that population. For absolute peptide uptake per cell, a standard curve was generated using Quantum™ Alexa Fluor 647 microspheres (Bangs Laboratory, Fishers, IN). A representative linear regression showing the correlation of molecule equivalents soluble fluorophores (MESF) vs the mean fluorescence intensity (MFI) is shown in Supplemental Figure 6. Cells were gated based on the forward and side scatter to include only viable cells and a minimum of 10,000 events were counted. MFI was determined at 50% at peak height. Molecules internalized per cell were determined by the standard curve relating MESF to MFI and divided by the number dye molecules/MGS conjugate. An example is shown in supplemental Figure 7. GraphPad Prism® was used for non-linear regression curve fitting to calculate an EC50. Parameters and statistical analysis are provided (Supplementary Tables 2–6). Experiments were repeated a minimum of three times.
(§3) For all EC50 determinations, each peptide variant was tested on the indicated cell line with a minimum of 3 biological replicates and analyzed individually by flow cytometry. The standard error measurement for each concentration is indicated by error bars in the figures. For experiments in which absolute number of molecules internalized was measured at different concentrations, EC50 were determined by GraphPad Prism® using nonlinear regression curve fitting for log(agonist) vs. response–Variable slope (four parameters). For the truncation experiments, EC50 were determined using one-site-specific binding. Similarly, IC50s were calculated using GraphPad Prism® using log(agonist) vs. response–Variable slope (four parameters). A minimum of four biological replicates were performed for each variant and cell line. Data for individual experiments are included in supplementary files. Parameters and statistical analysis are provided in Supplementary Tables 2–7. […]

[2] = system: H1993 cells
Source text: as §1, §2, §3

[3] = system: H2009 cells
Source text: as §1, §2, §3

SMILES: CC(=O)N[C@@H](Cc1ccccc1)C(=O)N[C@@H](Cc1c[nH]cn1)C(=O)N[C@@H](C)C(=O)N[C@H](C(=O)N1CCC[C@H]1C(=O)N[C@@H](CCC(N)=O)C(=O)N[C@@H](CO)C(=O)N[C@@H](Cc1ccccc1)C(=O)N[C@@H](Cc1ccc(O)cc1)C(=O)N[C@H](C(=O)NCCOCCOCCOCCOCCOCCOCCOCCOCCOCCOCCOCCOCCC(=O)N[C@@H](CCC(=O)NCCCOCCOCCOCCCNC(=O)CCCC[C@@H]1SC[C@@H]2NC(=O)N[C@@H]21)C(N)=O)[C@@H](C)O)C(C)C [MGS4_V8] (Ac-FHAVPQSFYT[PEG12]E(X1)-NH2)
- Molecules Internalized Per Cell ([1]; 0.01 nM): 0
- Molecules Internalized Per Cell ([1]; 0.1 nM): 11
- Molecules Internalized Per Cell ([1]; 1 nM): 140
- Molecules Internalized Per Cell ([1]; 5 nM): 2481
- Molecules Internalized Per Cell ([1]; 10 nM): 4840
- Molecules Internalized Per Cell ([1]; 20 nM): 25103
- Molecules Internalized Per Cell ([1]; 30 nM): 36064
- Molecules Internalized Per Cell ([1]; 40 nM): 47392
- Molecules Internalized Per Cell ([1]; 50 nM): 58761
- Molecules Internalized Per Cell ([1]; 60 nM): 66918
- Molecules Internalized Per Cell ([1]; 80 nM): 68326
- Saturation (molecules) ([1]; H358 Cells): 85,500 ± 39600 molecules
- HillSlope ([1]; Supplementary Table 5): 1.829
- LogIC50 ([1]; Supplementary Table 5): -7.470
- Top ([1]; Supplementary Table 5): 85477
- Molecules Internalized Per Cell ([2]; 0.01 nM): 0
- Molecules Internalized Per Cell ([2]; 1 nM): 57
- Molecules Internalized Per Cell ([2]; 10 nM): 3584
- Molecules Internalized Per Cell ([2]; 20 nM): 36850
- Molecules Internalized Per Cell ([2]; 30 nM): 42262
- Molecules Internalized Per Cell ([2]; 40 nM): 55296
- Molecules Internalized Per Cell ([2]; 50 nM): 88510
- Molecules Internalized Per Cell ([2]; 60 nM): 76327
- Saturation (molecules) ([2]; H1993 Cells): 119,000 ± 57,500 molecules
- HillSlope ([2]; Supplementary Table 6): 1.706
- LogIC50 ([2]; Supplementary Table 6): -7.427
- Top ([2]; Supplementary Table 6): 118643
- Molecules Internalized Per Cell ([3]; 1 nM): 0
- Molecules Internalized Per Cell ([3]; 10 nM): 1006
- Molecules Internalized Per Cell ([3]; 20 nM): 3516
- Molecules Internalized Per Cell ([3]; 30 nM): 15550
- Molecules Internalized Per Cell ([3]; 40 nM): 22008
- Molecules Internalized Per Cell ([3]; 50 nM): 28764
- Molecules Internalized Per Cell ([3]; 60 nM): 30384
- Molecules Internalized Per Cell ([3]; 80 nM): 38906
- Saturation (molecules) ([3]; H2009 Cells): 40,600 ± 2630 molecules
- HillSlope ([3]; Supplementary Table 4): 3.175
- LogIC50 ([3]; Supplementary Table 4): -7.424
- Top ([3]; Supplementary Table 4): 40633
